Where two headings read alike, the source gives them in different places.
How the values were obtained:
HCV NS5B = target: T1, HCV NS5B (Hepatitis C virus genotype 1b, UniProt Q9WMX2); assay: Inhibition of viral RNA-dependent RNA polymerase (RdRp), in vitro biochemical assay; set-up: species or system HCV genotype 1b virus (BB7); details: HCV NS5B RdRp, BB7; class symbols A-D; read-out: HCV pol-BB7 IC50
T1 construct: fusion protein, of which the carboxyl terminal 21 amino acids were removed to enhance its solubility; His tag (GSHHHHHH); made in house; host or cells: E. coli
Procedure, shortened: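 IC50 values are the concentrations that halve in vitro RNA synthesis by HCV NS5B polymerase. The enzyme was a C-terminally truncated (Δ21), His-tagged genotype 1b (BB7 consensus) protein purified from E. coli.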

[1] = tested on: HCV replicon (BB7 sequence) in Huh-7-Clone A cells; assay: HCV replicon assay: ELISA of NS5A protein in replicon-containing cells (Inhibition of Viral RNA Replication); type: cell-based; details: Hepatitis C virus
Procedure, shortened: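 EC50 taken from an 8-point serially diluted dose curve, with NS5A level as read-out: fixed cells probed with primary monoclonal and HRP-conjugated secondary, TMB developed 30 min, OD 650 nm. Compound exposure 72 h in Huh-7-Clone A replicon cells (BB7 sequence).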

[2] = HCV replicon assay, ranges of EC50, read-out: Replicon

| Compound | IC50 (HCV NS5B) [µM] | EC50 [1, 2] [µM] | EC50 ([1]; read-out: Replicon (μM)) [µM] |
| --- | --- | --- | --- |
| CNC(=O)c1c(-c2ccc(F)cc2)oc2cc(N(Cc3nccs3)S(C)(=O)=O)c(OC(C)C)cc12 [Example 285, 2-(4-Fluoro-phenyl)-5-isopropoxy-6-(methanesulfonyl-thiazol-2-ylmethyl-amino)-benzofuran-3-carboxylic acid methylamide] | ≤ 0.5 | < 1 | – |
| CCOC(=O)c1csc(CN(c2cc3oc(-c4ccc(F)cc4)c(C(=O)NC)c3cc2OC(C)C)S(C)(=O)=O)n1 [Example 286, 2-({[2-(4-Fluoro-phenyl)-5-isopropoxy-3-methylcarbamoyl-benzofuran-6-yl]-methanesulfonylamino}-methyl)-thiazole-4-carboxylic acid ethyl ester] | ≤ 0.5 | < 10 | – |
| CNC(=O)c1c(-c2ccc(F)cc2)oc2cc(N(C)S(C)(=O)=O)c(O)cc12 [Example 287, 2-(4-Fluoro-phenyl)-5-hydroxy-6-(methanesulfonyl-methyl-amino)-benzofuran-3-carboxylic acid methylamide] | ≤ 0.5 | < 10 | – |
| C=CCOc1cc2c(C(=O)NC)c(-c3ccc(F)cc3)oc2cc1N(CC=C)S(C)(=O)=O [Example 288, 6-(Allyl-methanesulfonyl-amino)-5-allyloxy-2-(4-fluoro-phenyl)-benzofuran-3-carboxylic acid methylamide] | ≤ 0.5 | < 1 | – |
| CNC(=O)c1c(-c2ccc(F)cc2)oc2cc(N(C(C)=O)S(C)(=O)=O)c(OC)cc12 [Example 289, 6-(Acetyl-methanesulfonyl-amino)-2-(4-fluoro-phenyl)-5-methoxy-benzofuran-3-carboxylic acid methylamide] | ≤ 0.5 | < 1 | – |
| CNC(=O)c1c(-c2ccc(F)cc2)oc2cc(N(Cc3c(C)noc3C)S(C)(=O)=O)c(OC)cc12 [Example 290, 6-[(3,5-Dimethyl-isoxazol-4-ylmethyl)-methanesulfonyl-amino]-2-(4-fluoro-phenyl)-5-methoxy-benzofuran-3-carboxylic acid methylamide] | ≤ 0.5 | < 10 | – |
| CNC(=O)c1c(-c2ccc(F)cc2)oc2cc(N(Cc3cscn3)S(C)(=O)=O)c(OC)cc12 [Example 291, 2-(4-Fluoro-phenyl)-6-(methanesulfonyl-thiazol-4-ylmethyl-amino)-5-methoxy-benzofuran-3-carboxylic acid methylamide] | ≤ 0.5 | < 1 | – |
| CNC(=O)c1c(-c2ccc(F)cc2)oc2cc(N(Cc3nc(C(=O)O)cs3)S(C)(=O)=O)c(OC(C)C)cc12 [Example 292, 2-({[2-(4-Fluoro-phenyl)-5-isopropoxy-3-methylcarbamoyl-benzofuran-6-yl]-methanesulfonyl-amino}-methyl)-thiazole-4-carboxylic acid] | ≤ 0.5 | > 100 | – |
| CNC(=O)c1c(-c2ccc(F)cc2)oc2cc(N3CCOCC3)c(OCc3ccc4c(c3)C(=O)OC(C)(C)O4)cc12 [Example 293] | 0.5 to 5 | – | < 10 |
| CCN(c1cc2oc(-c3ccc(F)cc3)c(C(=O)NC)c2cc1OCc1ccc2c(c1)C(=O)OC(C)(C)O2)S(C)(=O)=O [Example 294] | ≤ 0.5 | – | < 1 |
| CCN(c1cc2oc(-c3ccc(F)cc3)c(C(=O)NC)c2cc1O)S(C)(=O)=O [Example 297, 6-(Ethyl-methanesulfonyl-amino)-2-(4-fluoro-phenyl)-5-hydroxy-benzofuran-3-carboxylic acid methylamide] | ≤ 0.5 | < 10 | – |
| CNC(=O)c1c(-c2ccc(F)cc2)oc2cc(N(C)S(C)(=O)=O)c(OC(F)F)cc12 [Example 298, 5-Difluoromethoxy-2-(4-fluoro-phenyl)-6-(methanesulfonyl-methyl-amino)-benzofuran-3-carboxylic acid methylamide] | ≤ 0.5 | < 1 | – |
| CNC(=O)c1c(-c2ccc(F)cc2)oc2cc(N(Cc3ccncc3)S(C)(=O)=O)c(OC)cc12 [Example 299, 2-(4-Fluoro-phenyl)-6-(methanesulfonyl-pyridin-4-ylmethyl-amino)-5-methoxy-benzofuran-3-carboxylic acid methylamide] | ≤ 0.5 | < 1 | – |
| CNC(=O)c1c(-c2ccc(F)cc2)oc2cc(C(C)(C)O)c(C)cc12 [Example 300, 2-(4-Fluoro-phenyl)-6-(1-hydroxy-1-methyl-ethyl)-5-methyl-benzofuran-3-carboxylic acid methylamide] | ≤ 0.5 | < 10 | – |
| CNC(=O)c1c(-c2ccc(F)cc2)oc2cc(C(C)=O)c(C)cc12 [Example 301, 6-Acetyl-2-(4-fluoro-phenyl)-5-methyl-benzofuran-3-carboxylic acid methylamide] | ≤ 0.5 | < 10 | – |
| CNC(=O)c1c(-c2ccc(F)cc2)oc2cc(N(C)S(C)(=O)=O)c(OCc3ccc4c(c3)OC(C)(C)OC4=O)cc12 [Example 302, 5-(2,2-Dimethyl-4-oxo-4H-benzo[1,3]dioxin-7-ylmethoxy)-2-(4-fluoro-phenyl)-6-(methanesulfonyl-methyl-amino)-benzofuran-3-carboxylic acid methylamide] | ≤ 0.5 | < 1 | – |
| CNC(=O)c1c(-c2ccc(F)cc2)oc2cc(C(C)N(C)S(C)(=O)=O)c(OC)cc12 (stereo not shown) [Example 303, 2-(4-Fluoro-phenyl)-6-[1-(methanesulfonyl-methyl-amino)-ethyl]-5-methoxy-benzofuran-3-carboxylic acid methylamide] | ≤ 0.5 | < 1 | – |
| CNC(=O)c1c(-c2ccc(F)cc2)oc2cc(C(C)NC)c(OC)cc12 (stereo not shown) [Example 304, 2-(4-Fluoro-phenyl)-5-methoxy-6-(1-methylamino-ethyl)-benzofuran-3-carboxylic acid methylamide] | 0.5 to 5 | > 30 | – |
| CNC(=O)c1c(-c2ccc(F)cc2)oc2cc(N(C)S(C)(=O)=O)c(OCc3ccc(C(=O)OC)cc3)cc12 [Example 305, 4-[2-(4-Fluoro-phenyl)-6-(methanesulfonyl-methyl-amino)-3-methylcarbamoyl-benzofuran-5-yloxymethyl]-benzoic acid methyl ester] | ≤ 0.5 | < 1 | – |
| CNC(=O)c1c(-c2ccc(F)cc2)oc2cc(N(C)S(C)(=O)=O)c(OCc3cccc(C(=O)OC)c3)cc12 [Example 306] | ≤ 0.5 | – | < 1 |
| CNC(=O)c1c(-c2ccc(F)cc2)oc2cc(N(CCF)S(C)(=O)=O)c(OC)cc12 [Example 307, 6-[(2-Fluoro-ethyl)-methanesulfonyl-amino]-2-(4-fluoro-phenyl)-5-methoxy-benzofuran-3-carboxylic acid methylamide] | ≤ 0.5 | < 1 | – |
| CNC(=O)c1c(-c2ccc(F)cc2)oc2cc(N(CC(F)(F)F)S(C)(=O)=O)c(OC)cc12 [Example 308, 2-(4-Fluoro-phenyl)-6-[methanesulfonyl-(2,2,2-trifluoro-ethyl)-amino]-5-methoxy-benzofuran-3-carboxylic acid methylamide] | ≤ 0.5 | < 1 | – |
| CNC(=O)c1c(-c2ccc(F)cc2)oc2cc(C3CCCN3S(C)(=O)=O)c(OC)cc12 (stereo not shown) [Example 309, 2-(4-Fluoro-phenyl)-6-(1-methanesulfonyl-pyrrolidin-2-yl)-5-methoxy-benzofuran-3-carboxylic acid methylamide] | ≤ 0.5 | < 1 | – |

— patent US7265152B2 (ViroPharma Incorporated, priority 2002, dated 2007)
